The source made the active and inactive calls.
Key:
Phospholipase A2 = Phospholipase A2 (Homo sapiens, UniProt P04054); type: functional;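 further: confirmatory dose-response counterscreen on phospholipase A2, testing hits that came from an ultra-high-throughput screen for ATG4B inhibitors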
Cysteine protease ATG4B = Cysteine protease ATG4B (Homo sapiens, UniProt Q9Y4P1); type: functional;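 further: Fluorescence-based dose-response confirmation assay measuring inhibition of ATG4B activity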
[1] = molecular target: Voltage-dependent T-type calcium channel subunit alpha-1H (Homo sapiens, UniProt O95180); type: functional;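 further: channel activity triggered by adding a high calcium stimulation buffer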
Vero = Vero cell cytotoxicity, cytotoxicity control for flavivirus capping enzyme inhibitors (AID 588742); type: functional; details: Chlorocebus sabaeus
Genome polyprotein = Genome polyprotein (dengue virus type 2, UniProt P29990); assay: Dengue-2 NS5 methyltransferase inhibitors, primary screen, biochemical, confirmation dose response (AID 588689); type: functional
[2] = molecular target: T1, Sentrin-specific protease 8 (Homo sapiens, UniProt Q96LD8); assay: SENP8 protease inhibitors, SAR follow-up, biochemical, luminescence (AID 504501); type: functional
T1 sequence (Q96LD8 whole entry): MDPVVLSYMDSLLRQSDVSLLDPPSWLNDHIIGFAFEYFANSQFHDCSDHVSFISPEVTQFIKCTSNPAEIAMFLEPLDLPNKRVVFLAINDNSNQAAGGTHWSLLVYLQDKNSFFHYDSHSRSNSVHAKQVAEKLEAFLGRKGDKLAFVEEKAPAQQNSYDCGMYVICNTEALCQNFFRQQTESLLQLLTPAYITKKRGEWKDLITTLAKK

[3] = molecular target: T2, Sentrin-specific protease 7 (Homo sapiens, UniProt Q9BQF6); assay: SENP7 protease inhibitors, SAR follow-up, biochemical, luminescence (AID 504497); type: functional
T2 sequence (Q9BQF6 whole entry): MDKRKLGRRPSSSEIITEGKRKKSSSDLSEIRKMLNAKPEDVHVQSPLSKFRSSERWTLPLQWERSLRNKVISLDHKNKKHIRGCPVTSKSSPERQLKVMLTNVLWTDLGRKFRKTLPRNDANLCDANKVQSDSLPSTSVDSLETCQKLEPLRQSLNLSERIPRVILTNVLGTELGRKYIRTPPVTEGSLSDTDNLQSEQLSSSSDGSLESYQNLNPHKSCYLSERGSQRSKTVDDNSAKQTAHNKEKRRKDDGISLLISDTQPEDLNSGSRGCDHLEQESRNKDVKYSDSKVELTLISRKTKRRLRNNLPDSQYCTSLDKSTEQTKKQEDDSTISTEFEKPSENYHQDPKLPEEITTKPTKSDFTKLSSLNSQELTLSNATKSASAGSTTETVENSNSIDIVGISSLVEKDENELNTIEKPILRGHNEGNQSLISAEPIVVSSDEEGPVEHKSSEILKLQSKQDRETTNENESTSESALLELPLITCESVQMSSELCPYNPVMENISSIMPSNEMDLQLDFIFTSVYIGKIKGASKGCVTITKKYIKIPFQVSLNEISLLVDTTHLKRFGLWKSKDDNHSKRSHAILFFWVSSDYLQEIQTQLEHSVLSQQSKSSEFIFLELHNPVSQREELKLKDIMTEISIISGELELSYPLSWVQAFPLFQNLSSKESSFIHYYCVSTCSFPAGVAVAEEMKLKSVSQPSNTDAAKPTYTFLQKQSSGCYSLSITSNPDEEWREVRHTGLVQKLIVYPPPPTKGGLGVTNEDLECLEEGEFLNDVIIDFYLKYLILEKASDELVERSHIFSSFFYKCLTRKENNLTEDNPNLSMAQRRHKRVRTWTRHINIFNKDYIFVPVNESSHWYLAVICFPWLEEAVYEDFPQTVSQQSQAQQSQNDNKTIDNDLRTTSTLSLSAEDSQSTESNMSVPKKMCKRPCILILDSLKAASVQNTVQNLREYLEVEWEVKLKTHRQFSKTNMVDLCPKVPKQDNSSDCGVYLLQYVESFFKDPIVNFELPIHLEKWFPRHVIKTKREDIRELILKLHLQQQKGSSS

Caspase-3 = molecular target: T3, Caspase-3 (Homo sapiens, UniProt P42574); assay: SAR Analysis of small molecule inhibitors of Sentrin-specific proteases (SENPs) using a Caspase-3 Selectivity assay. [Related pubchem assays (depositor defined):AID2540, AID2599, AID434973, AID489001]; type: functional
T3 sequence (P42574 whole entry): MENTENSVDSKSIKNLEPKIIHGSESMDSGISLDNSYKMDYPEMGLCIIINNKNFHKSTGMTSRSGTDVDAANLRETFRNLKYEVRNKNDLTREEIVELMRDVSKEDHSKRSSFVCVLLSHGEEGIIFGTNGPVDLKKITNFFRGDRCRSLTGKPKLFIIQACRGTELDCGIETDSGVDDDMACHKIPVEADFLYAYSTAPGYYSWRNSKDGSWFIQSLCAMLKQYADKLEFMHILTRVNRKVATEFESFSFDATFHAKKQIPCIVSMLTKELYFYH

[4] = molecular target: T4, Sentrin-specific protease 6 (Homo sapiens, UniProt Q9GZR1); assay: SAR Analysis of small molecule inhibitors of Sentrin-specific protease 6 (SENP6) using a Luminescent assay. [Related pubchem assays (depositor defined):AID2582, AID2599]; type: functional
T4 sequence (Q9GZR1 whole entry): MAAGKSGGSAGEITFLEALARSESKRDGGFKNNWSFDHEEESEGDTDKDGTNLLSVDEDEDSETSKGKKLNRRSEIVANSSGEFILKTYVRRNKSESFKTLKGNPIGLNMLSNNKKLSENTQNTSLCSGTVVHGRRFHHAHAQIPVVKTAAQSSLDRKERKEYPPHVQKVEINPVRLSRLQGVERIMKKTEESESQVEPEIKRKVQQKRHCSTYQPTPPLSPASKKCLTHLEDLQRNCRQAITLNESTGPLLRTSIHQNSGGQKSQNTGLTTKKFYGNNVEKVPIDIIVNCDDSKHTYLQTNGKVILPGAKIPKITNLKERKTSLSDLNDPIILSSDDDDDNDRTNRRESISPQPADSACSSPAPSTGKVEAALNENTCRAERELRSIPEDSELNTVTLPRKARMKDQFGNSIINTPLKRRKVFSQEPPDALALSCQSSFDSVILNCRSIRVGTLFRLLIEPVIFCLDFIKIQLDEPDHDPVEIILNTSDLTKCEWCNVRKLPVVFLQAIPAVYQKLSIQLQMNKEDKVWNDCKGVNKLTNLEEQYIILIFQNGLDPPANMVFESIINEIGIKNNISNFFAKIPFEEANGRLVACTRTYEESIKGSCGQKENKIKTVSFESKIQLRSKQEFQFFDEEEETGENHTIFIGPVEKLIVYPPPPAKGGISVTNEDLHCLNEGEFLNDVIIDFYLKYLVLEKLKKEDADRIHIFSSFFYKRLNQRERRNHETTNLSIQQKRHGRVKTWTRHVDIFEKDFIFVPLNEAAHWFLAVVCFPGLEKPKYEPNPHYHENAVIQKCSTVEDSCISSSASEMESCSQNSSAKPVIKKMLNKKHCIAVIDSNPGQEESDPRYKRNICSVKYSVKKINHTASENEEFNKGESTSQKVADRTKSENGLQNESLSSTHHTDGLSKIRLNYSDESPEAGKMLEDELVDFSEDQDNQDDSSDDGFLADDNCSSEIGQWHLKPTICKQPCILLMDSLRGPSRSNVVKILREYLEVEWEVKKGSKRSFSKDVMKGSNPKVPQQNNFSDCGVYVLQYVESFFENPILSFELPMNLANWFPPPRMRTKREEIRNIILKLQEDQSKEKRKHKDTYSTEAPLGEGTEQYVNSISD

[5] = HEp-2 cell cytotoxicity, dose response, cytotoxicity control for RSV inhibitor project, HTS (AID 2410); type: functional; details: human respiratory syncytial virus
[6] = growth suppression of PTEN-null colon cells, dose response, cell-based, HCT116 PTEN knockout (AID 1047); type: functional;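 further: HCT116 colon tumor cells with PTEN knocked out; cells exposed to compound for 60 hours before readout; potency for loss of cell viability measured by luminescence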
Beta Lactamase = Beta Lactamase (Pseudomonas aeruginosa, UniProt Q932Y6); assay: beta-lactamase reporter inhibitor potency, dose response, artefact control for TLR9-MyD88 binding inhibitor project, BLA reporter cells, FRET fluorescence (AID 588341); type: cell-based;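 further: cell based assay in CHO-K1 cells stably expressing beta-lactamase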
CHO = assay: cytotoxicity in TLR9-MyD88 CHO cells, dose response, cytotoxicity control for TLR9-MyD88 binding inhibitor project, cell-based, luminescence (AID 588339); type: functional, hamster; details: Cricetulus griseus;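 further: CHO cells stably coexpressing TLR9 and MyD88 fusions from primary screen; compound exposure lasted 48 hours before viability readout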
[7] = growth suppression of beta-catenin-knockout colon cells, dose response, cell-based, HCT116, human colon tumor (AID 1045); type: functional;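 further: HCT116 colon tumor cells with beta catenin knocked out; cells exposed to compound for 60 hours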
[8] = molecular target: Dual specificity tyrosine-phosphorylation-regulated kinase 1A (Homo sapiens, UniProt Q13627); type: functional;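 further: measured against DYRK1A as one member of a broad kinome profiling panel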
[9] = molecular target: T5, Serine/threonine-protein kinase Chk1 (Homo sapiens, UniProt O14757); type: functional;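 further: measured as one member of a kinome-wide kinase profiling panel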
T5 sequence (O14757 whole entry): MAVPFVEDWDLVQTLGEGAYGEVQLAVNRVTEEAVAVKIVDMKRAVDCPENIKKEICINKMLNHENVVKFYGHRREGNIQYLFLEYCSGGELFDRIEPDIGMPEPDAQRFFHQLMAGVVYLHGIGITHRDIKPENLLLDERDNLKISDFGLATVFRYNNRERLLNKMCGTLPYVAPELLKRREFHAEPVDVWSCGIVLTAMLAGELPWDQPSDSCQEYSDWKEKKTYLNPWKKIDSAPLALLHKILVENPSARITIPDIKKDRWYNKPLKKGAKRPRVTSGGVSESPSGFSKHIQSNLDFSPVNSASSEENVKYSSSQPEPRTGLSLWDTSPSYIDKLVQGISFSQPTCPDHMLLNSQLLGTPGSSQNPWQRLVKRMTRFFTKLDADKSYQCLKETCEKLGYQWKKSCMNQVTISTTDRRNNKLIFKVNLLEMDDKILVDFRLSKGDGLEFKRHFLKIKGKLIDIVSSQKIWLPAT

[10] = molecular target: Dual specificity tyrosine-phosphorylation-regulated kinase 1B (Homo sapiens, UniProt Q9Y463); assay: Navigating the Kinome. Panel member name: DYRK1B; type: functional
[11] = molecular target: Glycogen synthase kinase-3 beta (Homo sapiens, UniProt P49841); type: functional;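 further: value comes from a broad kinome profiling panel, with GSK3B as the panel member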
[12] = molecular target: Dual specificity protein kinase CLK4 (Homo sapiens, UniProt Q9HAZ1); type: functional
[13] = molecular target: Hepatocyte growth factor receptor (Homo sapiens, UniProt P08581); type: functional;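 further: kinase panel profiling across the kinome, with MET as the panel member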
LIM domain kinase 1 = LIM domain kinase 1 (Homo sapiens, UniProt P53667); assay: Navigating the Kinome. Panel member name: LIMK1; type: functional
[14] = molecular target: Induced myeloid leukemia cell differentiation protein Mcl-1 (Homo sapiens, UniProt Q07820); type: functional
Sequence of Induced myeloid leukemia cell differentiation protein Mcl-1 (Q07820 whole entry): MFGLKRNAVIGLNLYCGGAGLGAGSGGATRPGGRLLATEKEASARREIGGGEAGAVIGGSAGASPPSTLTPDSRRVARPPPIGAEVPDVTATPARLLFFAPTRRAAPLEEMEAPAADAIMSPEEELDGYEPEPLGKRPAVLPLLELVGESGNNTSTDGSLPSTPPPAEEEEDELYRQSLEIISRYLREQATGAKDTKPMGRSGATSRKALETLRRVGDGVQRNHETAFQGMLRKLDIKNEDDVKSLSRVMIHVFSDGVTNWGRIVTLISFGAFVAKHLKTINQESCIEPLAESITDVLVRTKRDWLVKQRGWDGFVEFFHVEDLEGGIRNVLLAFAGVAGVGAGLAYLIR

Sequence of Genome polyprotein (P29990 2492-3391 limits assumed): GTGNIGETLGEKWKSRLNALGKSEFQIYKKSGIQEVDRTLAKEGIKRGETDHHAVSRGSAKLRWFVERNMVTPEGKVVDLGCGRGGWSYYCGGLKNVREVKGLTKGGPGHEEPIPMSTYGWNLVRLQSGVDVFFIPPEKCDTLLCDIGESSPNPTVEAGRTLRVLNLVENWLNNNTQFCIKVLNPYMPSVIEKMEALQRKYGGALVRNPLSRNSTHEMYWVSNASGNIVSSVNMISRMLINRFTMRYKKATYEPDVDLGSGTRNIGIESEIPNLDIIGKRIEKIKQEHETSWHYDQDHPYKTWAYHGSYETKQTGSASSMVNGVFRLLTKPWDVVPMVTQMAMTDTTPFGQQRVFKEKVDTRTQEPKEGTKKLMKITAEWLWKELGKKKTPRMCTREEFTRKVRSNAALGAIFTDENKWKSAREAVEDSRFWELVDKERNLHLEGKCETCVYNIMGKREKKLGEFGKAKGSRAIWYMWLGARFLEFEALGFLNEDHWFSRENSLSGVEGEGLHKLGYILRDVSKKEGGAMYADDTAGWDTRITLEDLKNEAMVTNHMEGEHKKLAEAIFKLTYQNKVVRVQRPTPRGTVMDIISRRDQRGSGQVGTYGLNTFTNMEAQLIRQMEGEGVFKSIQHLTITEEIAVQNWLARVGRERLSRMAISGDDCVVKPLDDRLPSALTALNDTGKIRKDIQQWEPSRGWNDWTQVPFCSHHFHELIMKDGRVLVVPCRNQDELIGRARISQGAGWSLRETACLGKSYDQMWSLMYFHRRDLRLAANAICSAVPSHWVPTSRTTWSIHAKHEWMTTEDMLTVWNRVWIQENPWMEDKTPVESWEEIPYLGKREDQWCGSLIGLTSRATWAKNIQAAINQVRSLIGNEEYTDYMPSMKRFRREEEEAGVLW
Sequence of Cysteine protease ATG4B (Q9Y4P1 whole entry): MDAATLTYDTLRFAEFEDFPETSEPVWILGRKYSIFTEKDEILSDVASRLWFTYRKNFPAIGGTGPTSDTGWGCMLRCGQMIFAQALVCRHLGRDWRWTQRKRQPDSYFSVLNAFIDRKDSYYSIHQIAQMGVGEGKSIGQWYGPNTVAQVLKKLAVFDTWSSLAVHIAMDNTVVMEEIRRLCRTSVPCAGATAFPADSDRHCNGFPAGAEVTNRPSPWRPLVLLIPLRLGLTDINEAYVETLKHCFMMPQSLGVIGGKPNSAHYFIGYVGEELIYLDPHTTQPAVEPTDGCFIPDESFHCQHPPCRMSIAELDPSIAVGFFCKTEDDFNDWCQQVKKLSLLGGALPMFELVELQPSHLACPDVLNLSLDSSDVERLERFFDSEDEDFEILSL
Sequence of Phospholipase A2 (P04054 whole entry): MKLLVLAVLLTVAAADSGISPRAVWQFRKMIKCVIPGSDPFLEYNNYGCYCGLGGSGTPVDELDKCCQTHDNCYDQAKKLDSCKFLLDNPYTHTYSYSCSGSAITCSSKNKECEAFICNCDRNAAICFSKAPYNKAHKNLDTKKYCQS
Sequence of Hepatocyte growth factor receptor (P08581 whole entry, the tested form may be a part): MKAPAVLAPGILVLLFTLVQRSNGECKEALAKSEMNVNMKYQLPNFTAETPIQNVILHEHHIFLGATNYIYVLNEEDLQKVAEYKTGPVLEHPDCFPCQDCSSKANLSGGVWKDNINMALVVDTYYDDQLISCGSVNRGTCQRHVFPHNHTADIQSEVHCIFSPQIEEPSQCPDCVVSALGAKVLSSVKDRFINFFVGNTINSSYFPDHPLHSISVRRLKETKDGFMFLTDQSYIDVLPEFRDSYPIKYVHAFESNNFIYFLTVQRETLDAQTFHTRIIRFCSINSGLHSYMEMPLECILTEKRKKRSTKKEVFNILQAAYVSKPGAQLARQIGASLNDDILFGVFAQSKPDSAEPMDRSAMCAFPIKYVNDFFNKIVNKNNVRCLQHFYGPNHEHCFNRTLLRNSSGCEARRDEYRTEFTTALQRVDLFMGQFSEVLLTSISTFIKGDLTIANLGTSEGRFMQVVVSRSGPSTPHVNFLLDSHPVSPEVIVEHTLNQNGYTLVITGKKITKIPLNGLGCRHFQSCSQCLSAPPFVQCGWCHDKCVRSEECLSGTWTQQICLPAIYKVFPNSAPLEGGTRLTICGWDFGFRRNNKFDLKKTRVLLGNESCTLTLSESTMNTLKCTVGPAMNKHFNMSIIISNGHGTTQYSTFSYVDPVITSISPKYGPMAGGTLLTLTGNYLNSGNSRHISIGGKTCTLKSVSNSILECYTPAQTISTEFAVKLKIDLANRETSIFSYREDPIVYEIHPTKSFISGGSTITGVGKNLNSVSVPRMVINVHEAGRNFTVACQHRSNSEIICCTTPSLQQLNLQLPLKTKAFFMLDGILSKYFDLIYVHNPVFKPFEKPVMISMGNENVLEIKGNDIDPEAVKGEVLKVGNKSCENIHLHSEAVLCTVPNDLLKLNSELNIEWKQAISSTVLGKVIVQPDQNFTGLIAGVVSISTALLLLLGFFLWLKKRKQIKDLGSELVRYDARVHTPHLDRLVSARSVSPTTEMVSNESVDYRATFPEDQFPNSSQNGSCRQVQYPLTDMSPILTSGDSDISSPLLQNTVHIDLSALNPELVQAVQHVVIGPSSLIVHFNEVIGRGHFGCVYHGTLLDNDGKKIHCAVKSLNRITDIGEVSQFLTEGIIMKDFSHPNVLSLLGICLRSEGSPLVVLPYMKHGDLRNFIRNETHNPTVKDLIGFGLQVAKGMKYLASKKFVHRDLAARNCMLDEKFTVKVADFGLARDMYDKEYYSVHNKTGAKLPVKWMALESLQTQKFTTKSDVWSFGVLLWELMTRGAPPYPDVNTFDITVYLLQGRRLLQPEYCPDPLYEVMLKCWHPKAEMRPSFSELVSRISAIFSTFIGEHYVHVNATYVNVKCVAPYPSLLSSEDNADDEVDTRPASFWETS
Sequence of Dual specificity protein kinase CLK4 (Q9HAZ1 whole entry): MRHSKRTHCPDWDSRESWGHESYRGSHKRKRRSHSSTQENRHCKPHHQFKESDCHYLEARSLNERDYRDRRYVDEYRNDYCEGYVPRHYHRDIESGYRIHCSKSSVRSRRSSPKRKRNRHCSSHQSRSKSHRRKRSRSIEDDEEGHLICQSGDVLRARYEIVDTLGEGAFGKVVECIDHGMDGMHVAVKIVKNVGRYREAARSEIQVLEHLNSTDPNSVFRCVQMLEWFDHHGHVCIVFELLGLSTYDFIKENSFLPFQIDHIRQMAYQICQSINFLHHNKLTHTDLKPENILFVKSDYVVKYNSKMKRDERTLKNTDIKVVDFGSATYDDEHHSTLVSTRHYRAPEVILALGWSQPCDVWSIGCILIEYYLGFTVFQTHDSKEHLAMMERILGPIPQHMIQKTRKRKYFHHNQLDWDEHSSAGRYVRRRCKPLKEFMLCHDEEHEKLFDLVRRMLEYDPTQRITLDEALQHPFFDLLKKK
Sequence of Glycogen synthase kinase-3 beta (P49841 whole entry): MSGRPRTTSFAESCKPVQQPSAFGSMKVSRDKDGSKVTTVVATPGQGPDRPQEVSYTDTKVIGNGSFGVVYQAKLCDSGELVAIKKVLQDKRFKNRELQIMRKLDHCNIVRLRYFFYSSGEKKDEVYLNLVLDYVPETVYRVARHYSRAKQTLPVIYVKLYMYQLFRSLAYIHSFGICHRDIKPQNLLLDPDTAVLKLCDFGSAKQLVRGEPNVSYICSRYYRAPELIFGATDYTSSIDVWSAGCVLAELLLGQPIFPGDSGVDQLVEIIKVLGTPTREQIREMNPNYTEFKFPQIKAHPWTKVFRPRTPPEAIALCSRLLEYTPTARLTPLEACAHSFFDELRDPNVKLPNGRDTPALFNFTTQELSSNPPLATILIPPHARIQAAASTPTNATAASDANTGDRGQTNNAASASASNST
Sequence of Beta Lactamase (Q932Y6 whole entry, the tested form may be a part): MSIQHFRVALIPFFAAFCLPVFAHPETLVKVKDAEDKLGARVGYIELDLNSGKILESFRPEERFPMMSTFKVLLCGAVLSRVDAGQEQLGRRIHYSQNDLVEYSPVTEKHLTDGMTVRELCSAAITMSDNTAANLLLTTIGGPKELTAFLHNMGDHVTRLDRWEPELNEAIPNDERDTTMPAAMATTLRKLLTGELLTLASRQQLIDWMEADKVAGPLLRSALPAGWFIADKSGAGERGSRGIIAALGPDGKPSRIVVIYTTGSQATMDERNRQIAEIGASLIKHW
Sequence of Dual specificity tyrosine-phosphorylation-regulated kinase 1B (Q9Y463 whole entry): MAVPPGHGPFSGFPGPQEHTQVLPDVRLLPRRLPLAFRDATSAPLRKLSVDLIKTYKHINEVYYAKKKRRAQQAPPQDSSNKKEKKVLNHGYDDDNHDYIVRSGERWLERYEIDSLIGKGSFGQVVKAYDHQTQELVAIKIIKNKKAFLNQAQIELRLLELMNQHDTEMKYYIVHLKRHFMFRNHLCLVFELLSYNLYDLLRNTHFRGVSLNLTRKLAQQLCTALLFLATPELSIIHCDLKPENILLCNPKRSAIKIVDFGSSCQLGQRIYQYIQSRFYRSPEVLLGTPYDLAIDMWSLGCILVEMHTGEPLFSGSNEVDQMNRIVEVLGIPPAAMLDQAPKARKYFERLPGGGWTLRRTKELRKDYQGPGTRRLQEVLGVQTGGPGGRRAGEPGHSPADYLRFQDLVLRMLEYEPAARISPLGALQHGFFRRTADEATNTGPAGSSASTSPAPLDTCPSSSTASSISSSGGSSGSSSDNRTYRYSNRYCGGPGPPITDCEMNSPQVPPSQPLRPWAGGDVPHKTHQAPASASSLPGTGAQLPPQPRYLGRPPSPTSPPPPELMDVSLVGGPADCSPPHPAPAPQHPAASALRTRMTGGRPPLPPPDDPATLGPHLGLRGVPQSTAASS

SMILES: CCOC(=O)C1CCCN(C(=O)c2ccc3c(=O)n(Cc4ccccc4OC)c(=S)[nH]c3c2)C1 (stereo unspecified)
- IC50 (Phospholipase A2): 9.33 µM (active)
- IC50 (Cysteine protease ATG4B): 19.6 µM (active)

SMILES: Cc1cccc(C)c1OCC(=O)Nc1cccc(NC(=O)c2ccco2)c1
- IC50 (Phospholipase A2): 8.37 µM (active)
- EC50 [1]: 6.78 µM (active)
- IC50 (Cysteine protease ATG4B): 15.9 µM (active)

SMILES: COC(=O)COc1ccc(C(C2C(=O)CC(C)(C)CC2=O)C2C(=O)CC(C)(C)CC2=O)cc1
- CC50 (Vero): > 40 µM (active)
- IC50 (Genome polyprotein): 48 µM (active)

SMILES: O=C(Nc1nc2ccc(Cl)cc2s1)c1nn(-c2ccccc2)ccc1=O
- IC50 [2]: > 99 µM (inactive)
- IC50 [3]: > 99 µM (inactive)
- IC50 (Caspase-3): > 99 µM (inactive)
- IC50 [4]: > 99 µM (inactive)

SMILES: COc1ccccc1NS(=O)(=O)c1cc([N+](=O)[O-])ccc1N/N=C/c1c[nH]c2ccccc12
- CC50 [5]: 41.7 µM (active)
- EC50 [6]: 21.9 µM (active)
- IC50 (Beta Lactamase): 2.74 µM (active)
- IC50 (CHO): 32 µM (inactive)
- EC50 [7]: 21.8 µM (active)

SMILES: COC(=O)c1csc2ccc(=O)[nH]c12
- Ki [8]: 25.1 µM (active)
- Ki [9]: 15.8 µM (active)
- Ki [10]: 63.1 µM (active)
- Ki [11]: 79.4 µM (active)
- Ki [12]: 12.6 µM (active)
- Ki [13]: 79.4 µM (active)
- Ki (LIM domain kinase 1): 15.8 µM (active)

SMILES: COc1ccccc1NC1=C(NC(C)=O)C(=O)c2ccccc2C1=O
- IC50 [14]: 2.28 µM (active)
- CC50 (Vero): > 40 µM (active)
- IC50 (Genome polyprotein): > 100 µM (active)

— ChEMBL document CHEMBL1201862, “PubChem BioAssay data set” (2004)
